The values that follow come from ChEMBL document CHEMBL5465560, “Selectivity Literature for EUbOPEN Chemogenomic Library” (2024).

In test [1] the target is Mitogen-activated protein kinase 3 (Homo sapiens, UniProt P27361). The test can be described thus: Selectivity interaction (KinomeScan (DiscoverX)) EUB0001619a MAPK3. To be noted: at 1 µM.
The target of test [2] is T1, Serine/threonine-protein kinase BRSK1 (Homo sapiens) (UniProt Q8TDC3).
T1 sequence (whole entry): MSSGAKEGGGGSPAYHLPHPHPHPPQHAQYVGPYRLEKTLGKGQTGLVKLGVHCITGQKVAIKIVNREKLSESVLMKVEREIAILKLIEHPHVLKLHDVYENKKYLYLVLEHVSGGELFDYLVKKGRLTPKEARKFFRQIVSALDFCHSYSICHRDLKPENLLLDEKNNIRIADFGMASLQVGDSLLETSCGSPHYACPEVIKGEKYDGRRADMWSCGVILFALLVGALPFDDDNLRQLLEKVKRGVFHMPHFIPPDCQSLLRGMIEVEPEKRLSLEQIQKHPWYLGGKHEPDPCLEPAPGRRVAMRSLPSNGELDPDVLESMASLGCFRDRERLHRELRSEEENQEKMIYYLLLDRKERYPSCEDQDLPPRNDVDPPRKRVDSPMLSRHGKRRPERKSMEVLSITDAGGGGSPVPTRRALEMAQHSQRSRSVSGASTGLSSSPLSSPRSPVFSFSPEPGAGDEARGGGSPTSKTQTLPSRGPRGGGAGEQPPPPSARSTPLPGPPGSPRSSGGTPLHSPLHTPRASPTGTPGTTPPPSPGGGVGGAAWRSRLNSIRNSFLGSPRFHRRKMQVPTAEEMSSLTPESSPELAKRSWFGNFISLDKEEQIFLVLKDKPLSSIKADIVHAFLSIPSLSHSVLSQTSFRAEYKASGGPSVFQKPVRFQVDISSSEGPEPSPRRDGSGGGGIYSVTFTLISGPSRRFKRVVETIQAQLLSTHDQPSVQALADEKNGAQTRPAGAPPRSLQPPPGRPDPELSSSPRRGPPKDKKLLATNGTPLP
Nature of the test: Selectivity interaction (KinomeScan (DiscoverX)) EUB0001619a BRSK1. To be noted: at 1 µM.

Test [3] has as its target Serine/threonine-protein kinase tousled-like 2 (Homo sapiens) (UniProt Q86UE8). The test can be described thus: Selectivity interaction (ActivX KiNativ screen (ex vivo kinase selectivity in human PBMCs)) EUB0001619a TLK2. The class given is cell-based. Conditions: PBMC, at 1 µM.
Test [4] deals with Serine/threonine-protein kinase pim-1 (Homo sapiens, UniProt P11309). To be noted: at 10 µM.
Serine/threonine-protein kinase pim-1, sequence (P11309 whole entry, looked up): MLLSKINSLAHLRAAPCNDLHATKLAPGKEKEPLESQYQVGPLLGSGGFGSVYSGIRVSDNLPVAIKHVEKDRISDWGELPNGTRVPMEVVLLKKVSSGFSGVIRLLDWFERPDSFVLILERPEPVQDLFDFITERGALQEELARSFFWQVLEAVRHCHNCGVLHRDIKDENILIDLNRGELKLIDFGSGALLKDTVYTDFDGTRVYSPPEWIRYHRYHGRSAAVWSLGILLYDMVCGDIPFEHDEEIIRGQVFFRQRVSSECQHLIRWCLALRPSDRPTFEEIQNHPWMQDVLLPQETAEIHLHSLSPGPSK
Test [5] addresses Death-associated protein kinase 3 (Homo sapiens) (UniProt O43293). Nature of the test: Selectivity interaction (ProQinase) EUB0000171b DAPK3.
Test [6] addresses T2, Non-receptor tyrosine-protein kinase TNK1 (Homo sapiens) (UniProt Q13470).
T2 sequence (whole entry): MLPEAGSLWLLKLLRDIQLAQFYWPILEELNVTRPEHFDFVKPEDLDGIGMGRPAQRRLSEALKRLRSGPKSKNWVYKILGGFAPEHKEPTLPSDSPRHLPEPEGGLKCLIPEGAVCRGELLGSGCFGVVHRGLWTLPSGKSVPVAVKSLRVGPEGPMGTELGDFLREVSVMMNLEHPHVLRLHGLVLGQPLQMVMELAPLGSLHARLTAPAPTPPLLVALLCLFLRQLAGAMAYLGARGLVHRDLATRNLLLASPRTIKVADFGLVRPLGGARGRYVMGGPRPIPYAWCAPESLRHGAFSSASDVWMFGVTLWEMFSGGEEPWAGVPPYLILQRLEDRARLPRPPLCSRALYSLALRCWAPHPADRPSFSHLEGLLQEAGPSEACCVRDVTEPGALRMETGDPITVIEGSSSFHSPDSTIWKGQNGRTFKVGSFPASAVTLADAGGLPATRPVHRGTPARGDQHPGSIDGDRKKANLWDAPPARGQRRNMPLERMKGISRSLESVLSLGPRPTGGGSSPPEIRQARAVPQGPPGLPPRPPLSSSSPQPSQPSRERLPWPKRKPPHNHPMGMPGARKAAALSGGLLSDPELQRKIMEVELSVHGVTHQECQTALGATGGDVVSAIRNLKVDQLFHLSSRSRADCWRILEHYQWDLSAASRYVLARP
The test can be described thus: Selectivity interaction (KinomeScan (DiscoverX)) EUB0001049a TNK1. To be noted: at 1 µM.

In test [7] the target is Phosphorylase b kinase gamma catalytic chain, skeletal muscle/heart isoform (Homo sapiens) (UniProt Q16816). The test can be described thus: Selectivity interaction (KinomeScan (DiscoverX)) EUB0000618a PHKG1. To be noted: at 10 µM.
Phosphorylase b kinase gamma catalytic chain, skeletal muscle/heart isoform (Homo sapiens), sequence (Q16816 whole entry, looked up, canonical isoform): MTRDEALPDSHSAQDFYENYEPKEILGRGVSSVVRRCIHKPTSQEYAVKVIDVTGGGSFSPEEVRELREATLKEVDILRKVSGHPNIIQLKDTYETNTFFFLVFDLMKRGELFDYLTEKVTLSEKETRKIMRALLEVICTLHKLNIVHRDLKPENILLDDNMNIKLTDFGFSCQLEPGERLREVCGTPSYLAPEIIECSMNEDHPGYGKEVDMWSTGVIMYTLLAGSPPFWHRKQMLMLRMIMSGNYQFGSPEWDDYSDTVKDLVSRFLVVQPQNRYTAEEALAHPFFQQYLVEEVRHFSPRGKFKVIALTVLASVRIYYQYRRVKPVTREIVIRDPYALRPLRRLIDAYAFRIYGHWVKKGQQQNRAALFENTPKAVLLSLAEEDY
The target in test [8] is Beta-1 adrenergic receptor (Homo sapiens, UniProt P08588). The test can be described thus: Selectivity interaction (GPCR panel (PDSP screen)) EUB0001079a ADRB1. Conditions: at 10 µM.
Beta-1 adrenergic receptor, sequence (P08588 whole entry, looked up): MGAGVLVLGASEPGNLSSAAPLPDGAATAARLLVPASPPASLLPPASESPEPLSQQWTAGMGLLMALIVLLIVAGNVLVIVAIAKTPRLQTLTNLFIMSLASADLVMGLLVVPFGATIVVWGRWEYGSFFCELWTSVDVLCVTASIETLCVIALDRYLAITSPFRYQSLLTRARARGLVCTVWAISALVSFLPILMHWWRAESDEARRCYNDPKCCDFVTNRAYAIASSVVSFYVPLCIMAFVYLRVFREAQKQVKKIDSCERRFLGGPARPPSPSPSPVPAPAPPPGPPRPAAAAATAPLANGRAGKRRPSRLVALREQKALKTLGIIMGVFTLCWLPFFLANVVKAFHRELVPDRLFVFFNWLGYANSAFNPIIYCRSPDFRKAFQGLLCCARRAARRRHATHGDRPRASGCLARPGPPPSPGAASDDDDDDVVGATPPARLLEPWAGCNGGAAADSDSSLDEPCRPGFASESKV
The target in test [9] is Mitogen-activated protein kinase 6 (Homo sapiens) (UniProt Q16659). Nature of the test: Selectivity interaction (KinomeScan (DiscoverX)) EUB0001079a MAPK6. Conditions: at 1 µM.
Mitogen-activated protein kinase 6 (Homo sapiens), sequence (Q16659 whole entry): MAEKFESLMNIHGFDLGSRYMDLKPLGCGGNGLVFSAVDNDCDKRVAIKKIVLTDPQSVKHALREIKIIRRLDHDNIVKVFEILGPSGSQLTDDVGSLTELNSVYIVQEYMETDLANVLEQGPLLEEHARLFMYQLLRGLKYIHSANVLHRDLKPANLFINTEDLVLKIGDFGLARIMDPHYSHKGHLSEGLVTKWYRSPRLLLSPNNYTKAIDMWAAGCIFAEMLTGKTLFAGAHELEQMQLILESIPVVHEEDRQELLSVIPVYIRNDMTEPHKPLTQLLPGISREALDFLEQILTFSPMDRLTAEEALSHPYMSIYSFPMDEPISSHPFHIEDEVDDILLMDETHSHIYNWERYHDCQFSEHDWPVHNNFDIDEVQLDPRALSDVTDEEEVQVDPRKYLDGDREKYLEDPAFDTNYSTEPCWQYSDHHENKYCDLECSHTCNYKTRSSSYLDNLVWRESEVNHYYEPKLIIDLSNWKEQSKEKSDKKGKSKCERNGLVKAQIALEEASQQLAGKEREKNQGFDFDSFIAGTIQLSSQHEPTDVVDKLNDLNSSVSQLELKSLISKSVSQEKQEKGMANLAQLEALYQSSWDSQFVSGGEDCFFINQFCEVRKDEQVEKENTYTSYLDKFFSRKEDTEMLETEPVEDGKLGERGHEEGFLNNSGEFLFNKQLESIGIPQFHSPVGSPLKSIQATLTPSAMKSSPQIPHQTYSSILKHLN
In test [10] the target is Calcium/calmodulin-dependent protein kinase kinase 2 (Homo sapiens) (UniProt Q96RR4). Nature of the test: Selectivity interaction (KinomeScan (DiscoverX)) EUB0001079a CAMKK2. To be noted: at 1 µM.
Calcium/calmodulin-dependent protein kinase kinase 2 (Homo sapiens), sequence (Q96RR4 2-588 limits assumed): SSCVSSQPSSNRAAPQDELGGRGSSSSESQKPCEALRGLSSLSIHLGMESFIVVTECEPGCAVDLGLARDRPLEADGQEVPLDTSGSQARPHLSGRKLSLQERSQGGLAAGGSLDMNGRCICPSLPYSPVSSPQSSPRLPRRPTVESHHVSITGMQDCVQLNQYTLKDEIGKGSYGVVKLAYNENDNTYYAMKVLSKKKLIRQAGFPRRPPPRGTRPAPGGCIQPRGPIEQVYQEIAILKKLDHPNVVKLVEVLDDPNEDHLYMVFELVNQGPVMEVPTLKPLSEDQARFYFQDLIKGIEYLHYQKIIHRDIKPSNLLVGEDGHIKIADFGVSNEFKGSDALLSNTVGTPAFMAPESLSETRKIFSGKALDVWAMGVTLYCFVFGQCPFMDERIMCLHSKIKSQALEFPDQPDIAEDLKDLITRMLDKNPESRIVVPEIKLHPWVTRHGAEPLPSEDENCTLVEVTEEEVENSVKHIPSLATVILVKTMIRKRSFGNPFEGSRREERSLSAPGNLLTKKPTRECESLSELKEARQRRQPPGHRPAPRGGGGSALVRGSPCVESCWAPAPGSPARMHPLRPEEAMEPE
The target in test [11] is T3, Tyrosine-protein kinase ZAP-70 (Homo sapiens) (UniProt P43403).
T3 sequence (whole entry): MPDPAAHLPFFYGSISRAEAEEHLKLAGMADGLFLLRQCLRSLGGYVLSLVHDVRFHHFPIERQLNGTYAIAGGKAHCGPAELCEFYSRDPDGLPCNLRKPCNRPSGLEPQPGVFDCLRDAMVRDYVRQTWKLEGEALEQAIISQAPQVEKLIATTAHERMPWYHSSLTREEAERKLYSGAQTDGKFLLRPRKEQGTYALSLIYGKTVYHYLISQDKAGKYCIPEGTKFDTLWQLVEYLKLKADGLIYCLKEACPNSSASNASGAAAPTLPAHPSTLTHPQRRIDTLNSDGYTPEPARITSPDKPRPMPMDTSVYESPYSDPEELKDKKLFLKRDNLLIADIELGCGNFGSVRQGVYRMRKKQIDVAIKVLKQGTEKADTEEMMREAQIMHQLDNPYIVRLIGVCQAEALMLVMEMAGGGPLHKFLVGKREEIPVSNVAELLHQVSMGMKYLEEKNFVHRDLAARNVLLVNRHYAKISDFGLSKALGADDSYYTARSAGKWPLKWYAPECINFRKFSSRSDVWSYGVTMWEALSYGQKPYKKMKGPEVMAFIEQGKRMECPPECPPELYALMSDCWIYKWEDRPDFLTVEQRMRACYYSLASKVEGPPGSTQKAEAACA
Nature of the test: Selectivity interaction (KinomeScan (DiscoverX)) EUB0000229b ZAP70. To be noted: at 10 µM.

Test [12] addresses Cyclin-dependent kinase 9 (Homo sapiens, UniProt P50750). The test can be described thus: Selectivity interaction (Kinase panel (KiNativ target engagement assay in Jurkat cells)) EUB0001635a CDK9. Conditions: at 1 µM. The class given is cell-based.

Death-associated protein kinase 3 (Homo sapiens), sequence (O43293 whole entry, looked up): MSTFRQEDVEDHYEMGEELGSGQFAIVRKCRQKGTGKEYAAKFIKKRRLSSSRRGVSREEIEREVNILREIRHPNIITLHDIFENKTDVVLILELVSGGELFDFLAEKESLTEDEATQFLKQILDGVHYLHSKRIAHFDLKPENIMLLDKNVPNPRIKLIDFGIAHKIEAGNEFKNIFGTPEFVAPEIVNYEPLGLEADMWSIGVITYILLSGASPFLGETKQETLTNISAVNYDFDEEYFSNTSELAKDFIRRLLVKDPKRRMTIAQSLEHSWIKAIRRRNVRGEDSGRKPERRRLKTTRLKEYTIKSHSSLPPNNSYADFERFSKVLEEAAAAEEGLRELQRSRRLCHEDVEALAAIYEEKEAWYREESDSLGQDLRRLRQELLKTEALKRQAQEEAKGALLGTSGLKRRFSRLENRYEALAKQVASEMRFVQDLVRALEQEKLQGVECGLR
Mitogen-activated protein kinase 3, sequence (P27361 whole entry): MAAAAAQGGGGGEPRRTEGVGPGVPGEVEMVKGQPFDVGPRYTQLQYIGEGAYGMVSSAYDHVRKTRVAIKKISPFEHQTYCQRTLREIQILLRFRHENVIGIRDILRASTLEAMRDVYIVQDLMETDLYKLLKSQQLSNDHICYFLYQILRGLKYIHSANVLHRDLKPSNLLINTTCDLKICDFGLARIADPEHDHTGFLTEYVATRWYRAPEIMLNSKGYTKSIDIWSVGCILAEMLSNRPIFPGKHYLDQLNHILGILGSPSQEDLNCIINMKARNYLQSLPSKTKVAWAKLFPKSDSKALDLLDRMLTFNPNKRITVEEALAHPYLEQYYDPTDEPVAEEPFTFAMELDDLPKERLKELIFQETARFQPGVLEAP
Cyclin-dependent kinase 9, sequence (P50750 whole entry): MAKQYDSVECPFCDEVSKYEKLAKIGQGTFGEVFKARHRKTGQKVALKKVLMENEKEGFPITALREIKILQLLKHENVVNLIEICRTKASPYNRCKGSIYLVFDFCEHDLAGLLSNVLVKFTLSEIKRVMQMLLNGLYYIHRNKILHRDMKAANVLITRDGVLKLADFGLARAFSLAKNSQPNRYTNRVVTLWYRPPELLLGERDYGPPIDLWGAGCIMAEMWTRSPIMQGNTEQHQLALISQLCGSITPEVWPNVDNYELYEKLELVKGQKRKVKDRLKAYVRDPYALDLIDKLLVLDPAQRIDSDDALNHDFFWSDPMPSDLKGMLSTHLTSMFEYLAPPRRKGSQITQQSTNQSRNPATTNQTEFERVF
Serine/threonine-protein kinase tousled-like 2 (Homo sapiens), sequence (Q86UE8 whole entry, looked up): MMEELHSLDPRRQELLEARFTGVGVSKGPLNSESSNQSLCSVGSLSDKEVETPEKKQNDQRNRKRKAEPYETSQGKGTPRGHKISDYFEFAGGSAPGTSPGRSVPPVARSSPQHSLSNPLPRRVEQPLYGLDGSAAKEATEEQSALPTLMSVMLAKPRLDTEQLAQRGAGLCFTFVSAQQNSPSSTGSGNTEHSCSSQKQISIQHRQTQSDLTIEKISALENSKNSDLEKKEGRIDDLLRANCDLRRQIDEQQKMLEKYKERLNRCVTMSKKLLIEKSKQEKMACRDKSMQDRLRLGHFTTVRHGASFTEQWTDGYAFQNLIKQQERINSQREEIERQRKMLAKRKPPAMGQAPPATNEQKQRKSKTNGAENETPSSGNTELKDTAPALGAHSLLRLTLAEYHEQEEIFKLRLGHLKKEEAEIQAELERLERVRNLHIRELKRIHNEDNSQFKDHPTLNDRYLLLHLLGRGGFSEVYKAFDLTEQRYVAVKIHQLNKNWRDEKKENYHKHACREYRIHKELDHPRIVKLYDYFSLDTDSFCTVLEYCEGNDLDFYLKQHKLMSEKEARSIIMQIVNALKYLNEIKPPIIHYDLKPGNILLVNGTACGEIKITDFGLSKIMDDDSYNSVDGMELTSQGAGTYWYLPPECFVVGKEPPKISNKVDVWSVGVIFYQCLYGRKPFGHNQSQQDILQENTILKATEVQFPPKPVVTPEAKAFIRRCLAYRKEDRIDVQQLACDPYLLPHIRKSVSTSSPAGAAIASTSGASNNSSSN

On to `N#Cc1cccc(-c2c[nH]c3ncnc(N4CCOCC4)c23)c1`, for which the % of control in test [1] was 87%; in test [2] it was 100%. The % of inhibition in test [3] was 6%.

`Cc1cc([C@@H](C)Nc2ccccc2C(=O)O)c2nc(N3CCOCC3)cc(=O)n2c1` [AZD-6482] yielded a % of control in [4] of 100%.

For the compound `C=CC(=O)Nc1cccc(C(=O)Nc2ccc(Nc3cc(-c4[nH]c(SC)nc4C)ccn3)cc2)c1`, the % of control in test [5] (at 1 µM) and in test [5] (at 5 µM) was 88% in each case.

Regarding `COc1cc(Nc2nc(C)cc(-c3cnn4nc(OC)ccc34)n2)cc(C(F)(F)F)c1`, the % of control in test [6] is 80%.

In [7], `O[C@H]1CC[C@H](Nc2ncc3nc(Nc4c(F)cc(F)cc4F)n([C@H]4CCOC4)c3n2)CC1` yielded a % of control of 100%.

In test [8], `Nc1cnc(N2CCc3cc(S(=O)(=O)Nc4c(F)cc(Cl)cc4F)cc(N4CCCC4=O)c32)nc1` [TP-020n] returned a % of inhibition of 8.84%. The % of control in [9] and in test [10] was 100% each time.

Consider `COc1cc(N(C)c2ccnc3ccc(C(F)(F)F)cc23)cc(OC)c1OC`, for which the % binding in test [11] came to 100%.

As to `C=CC(=O)Nc1ccc(C(=O)Nc2[nH]nc3c2CN(C(=O)N[C@H](CN(C)C)c2ccccc2)C3(C)C)cc1`, in [12], the % of engagement is -78.1%.
